Laboratory results taken from patent US7638509B2, “Diene compounds and formulations” (priority 2003, dated 2009).

Key:
LNCaP cells = assay: LNCaP cell growth, cell count by hemocytometer; type: cell-based, human
Method: The mean±SD of three separate experiments was determined. […] Total cell number was counted by hemocytometer. The mean of at least three determinations was determined.

[1] = molecular target: T1, progesterone receptor (PR) (Homo sapiens, UniProt P06401); assay: Steroid hormone specificity, PR/MMTV-Luc in PC-3 cells; type: cell-based; conditions: PC-3, PR/MMTV-Luc, ADEK at 0.01 mM, 0.1 mM and 1.0 mM, 24 h
T1 construct: expressed in transfected cells; host or cells: PC-3
T1 sequence (P06401 1-933): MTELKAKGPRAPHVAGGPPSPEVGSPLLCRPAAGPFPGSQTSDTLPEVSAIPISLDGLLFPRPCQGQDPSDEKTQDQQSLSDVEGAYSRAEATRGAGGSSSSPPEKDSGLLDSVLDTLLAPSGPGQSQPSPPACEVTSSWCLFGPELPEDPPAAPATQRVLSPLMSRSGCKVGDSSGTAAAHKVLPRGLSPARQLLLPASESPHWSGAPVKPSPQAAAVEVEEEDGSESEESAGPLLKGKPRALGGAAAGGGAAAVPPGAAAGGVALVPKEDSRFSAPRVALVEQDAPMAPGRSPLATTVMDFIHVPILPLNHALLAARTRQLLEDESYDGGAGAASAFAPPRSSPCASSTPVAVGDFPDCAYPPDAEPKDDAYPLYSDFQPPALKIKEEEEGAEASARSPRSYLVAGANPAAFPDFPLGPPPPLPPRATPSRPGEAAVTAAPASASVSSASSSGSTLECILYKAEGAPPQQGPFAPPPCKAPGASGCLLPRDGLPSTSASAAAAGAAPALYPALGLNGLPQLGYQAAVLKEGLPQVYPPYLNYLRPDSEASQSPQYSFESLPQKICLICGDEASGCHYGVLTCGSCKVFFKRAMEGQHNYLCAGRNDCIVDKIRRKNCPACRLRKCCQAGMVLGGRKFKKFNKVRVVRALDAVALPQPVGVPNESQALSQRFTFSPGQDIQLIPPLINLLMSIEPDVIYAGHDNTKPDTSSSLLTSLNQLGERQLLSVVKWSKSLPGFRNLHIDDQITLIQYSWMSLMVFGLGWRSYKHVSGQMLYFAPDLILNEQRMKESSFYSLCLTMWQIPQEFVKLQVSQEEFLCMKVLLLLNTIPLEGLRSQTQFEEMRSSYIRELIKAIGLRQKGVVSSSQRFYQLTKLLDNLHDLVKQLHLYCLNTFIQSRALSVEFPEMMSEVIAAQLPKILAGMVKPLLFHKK
Method: Cell Culture, Transfection, and Reporter Gene Assay. The human prostate cancer cell lines, LNCaP, PC-3, and DU145, and non-prostate cancer cell line COS-1 were maintained in RPMI or Dulbecco's modified Eagle's medium (DMEM) (Life Technologies) supplemented with 10% fetal bovine serum (FBS). Transfections and luciferase (Luc) assays were performed as previously described (Miyamoto, H., Yeh, S., Wilding, G. & Chang, C. (1998) Proc. Natl. Acad. Sci. USA 95, 7379-7384; Miyamoto, H., Rahman, M., Takatera, H., Kang, H.-Y., Yeh, S., Chang, H.-C., Nishimura, K., Fujimoto, N. & Chang, C. (2002) J. Biol. Chem. 277, 4609-4617). Briefly, cells seeded to reach a density of 50-60% confluence in 12 well tissue culture plates were transfected with 1.5 μg of DNA according to “SuperFect transfection” instructions (Qiagen). […] The Luc activity was determined using a Dual-Luciferase Reporter Assay System (Promega) and luminometer.
Steroid Hormone Specificity of ADEK. To characterize the steroid hormone activity of ADEK, PC-3 cells were transfected with steroid receptor/reporter (progesterone receptor (PR)/MMTV-Luc, glucocorticoid receptor (GR)/MMTV-Luc, or estrogen receptor (ER)/ERE-Luc) and analyzed for expression of the Luc reporter gene. […] The Luc activity was measured relative to that of ETOH treatment (set as 1-fold). […]

[2] = molecular target: T2, AR with coactivator ARA70 (Homo sapiens, UniProt P10275); assay: ARA70 enhancement of AR transactivation, MMTV-Luc in DU145 cells with pSG5-AR and pSG5-ARA70; type: cell-based; conditions: DU145, pSG5-AR + MMTV-Luc with or without pSG5-ARA70
T2 construct: expressed in transfected cells; host or cells: DU145
T2 sequence (P10275 1-920): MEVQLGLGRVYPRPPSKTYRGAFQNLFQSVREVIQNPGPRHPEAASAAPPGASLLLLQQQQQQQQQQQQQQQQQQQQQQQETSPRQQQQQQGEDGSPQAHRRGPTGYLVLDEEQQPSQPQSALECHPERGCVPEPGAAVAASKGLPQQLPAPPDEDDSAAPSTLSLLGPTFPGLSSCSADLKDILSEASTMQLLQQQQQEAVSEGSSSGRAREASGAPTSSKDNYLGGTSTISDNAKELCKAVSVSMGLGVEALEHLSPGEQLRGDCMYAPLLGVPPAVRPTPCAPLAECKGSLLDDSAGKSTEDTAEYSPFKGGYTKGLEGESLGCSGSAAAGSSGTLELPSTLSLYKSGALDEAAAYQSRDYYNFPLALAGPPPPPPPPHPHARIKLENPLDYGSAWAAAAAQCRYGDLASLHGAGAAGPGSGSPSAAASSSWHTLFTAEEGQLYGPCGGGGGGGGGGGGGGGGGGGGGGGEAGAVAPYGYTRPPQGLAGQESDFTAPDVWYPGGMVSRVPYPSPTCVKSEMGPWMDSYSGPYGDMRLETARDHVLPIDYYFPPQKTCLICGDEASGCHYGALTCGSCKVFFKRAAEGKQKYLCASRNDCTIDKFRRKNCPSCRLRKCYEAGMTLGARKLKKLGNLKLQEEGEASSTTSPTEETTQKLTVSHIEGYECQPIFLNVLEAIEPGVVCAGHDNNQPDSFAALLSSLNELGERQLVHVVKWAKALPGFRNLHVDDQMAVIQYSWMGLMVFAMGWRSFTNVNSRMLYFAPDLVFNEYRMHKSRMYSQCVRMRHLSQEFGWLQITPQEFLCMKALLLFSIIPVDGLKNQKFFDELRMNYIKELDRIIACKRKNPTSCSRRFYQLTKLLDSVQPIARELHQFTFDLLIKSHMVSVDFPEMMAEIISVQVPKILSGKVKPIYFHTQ
Method: Cell Culture, Transfection, and Reporter Gene Assay. The human prostate cancer cell lines, LNCaP, PC-3, and DU145, and non-prostate cancer cell line COS-1 were maintained in RPMI or Dulbecco's modified Eagle's medium (DMEM) (Life Technologies) supplemented with 10% fetal bovine serum (FBS). Transfections and luciferase (Luc) assays were performed as previously described (Miyamoto, H., Yeh, S., Wilding, G. & Chang, C. (1998) Proc. Natl. Acad. Sci. USA 95, 7379-7384; Miyamoto, H., Rahman, M., Takatera, H., Kang, H.-Y., Yeh, S., Chang, H.-C., Nishimura, K., Fujimoto, N. & Chang, C. (2002) J. Biol. Chem. 277, 4609-4617). Briefly, cells seeded to reach a density of 50-60% confluence in 12 well tissue culture plates were transfected with 1.5 μg of DNA according to “SuperFect transfection” instructions (Qiagen). After 2-3 h incubation, cells were treated with medium supplemented with charcoal-stripped FBS containing either ethanol or ligands for 24 h. The cells were then harvested and whole cell extracts were used for Luc assay. The Luc activity was determined using a Dual-Luciferase Reporter Assay System (Promega) and luminometer.
The effects of ADEK on the DHT-induced transcriptional activity of AR was examined in COS-1 or LNCaP cells transfected with MMTV-Luc. The pSG5-AR was co-transfected in COS-1 cells. […] Values were obtained from the mean±SD of at least three determinations. […]

CC(=O)O[C@H]1C=C[C@@]2(C)C(=CC[C@@H]3[C@@H]2CC[C@@]2(C)[C@H]3CCC23OCCO3)C1 [ADEK, 3β-acetoxy-17,17-ethylenedioxyandrosta-1,5-diene]
effect on LNCaP cell growth, DHT alone or compound with DHT (in words) (LNCaP cells; 1 nM DHT, 1 μM compound in presence of DHT): antagonized this DHT effect
effect on LNCaP cell growth in the absence of androgen (in words) (LNCaP cells; 1 μM compound, no DHT): marginally increased growth
progesterone activity (in words) [1]: no significant
enhancement of AR transactivation by ARA70 in the presence of compound [2]: < 2 fold
